In US10774053B2, “HIV protease inhibitors” (Gilead Sciences, Inc., priority 2017, dated 2020):

tested on: HIV-1 (IIIB) in MT-4 cells; assay: microbe, parasite or virus in culture; format: cell-based; details: Human immunodeficiency virus 1, IIIB, MT4, MT-4 cells, HIV-1; read-out: MT4 EC50
Protocol: Compounds were serially diluted (1:3) in DMSO on 384-well polypropylene plates and further diluted 200-fold into complete RPMI media (10% FBS, 1% P/S) using the Biotek Micro Flow and Agilent ECHO acoustic dispenser. Each plate contained up to 8 test compounds, with negative (No Drug Control) and 5 uM AZT positive controls. MT-4 cells were pre-infected with 10 uL of either RPMI (mock-infected) or a fresh 1:250 dilution of an HIV-1 (IIIB) concentrated virus stock. Infected and uninfected MT-4 cells were further diluted in complete RPMI media and added to each plate using a Micro Flow dispenser. After 5 days incubation in a humidified and temperature controlled incubator (37° C.), Cell Titer Glo (Promega) was added to the assay plates to quantify the amount of luciferase.

Question: How did the EC50 turn out when `CC(C)(C)C[C@]1(c2ccc(-c3cnn(C(F)F)c3)cc2)NC(=N)N([C@H](COC(=O)NC2COC2)c2ccc(Cl)c(-c3ncn[nH]3)c2)C1=O` [Compound 94] was run?
Answer: 341 nM

Question: How did the EC50 turn out when `CC(C)(C)C[C@]1(c2ccc(-c3cnn(C(F)F)c3)cc2)NC(=N)N([C@H](COC(=O)N(CC(F)(F)F)C2CC2)c2ccc(Cl)c(-c3ncn[nH]3)c2)C1=O` [Compound 95] was run?
Answer: 30.4 nM

Question: `[2H]C([2H])([2H])n1cnc(-c2cc([C@@H](COC(=O)NC(C)(C)C(F)F)N3C(=N)N[C@](C[C@@]4(C)CC4(F)F)(c4ccc(-c5cnn(C(F)F)c5)cc4)C3=O)ccc2Cl)n1` [Compound 96] was tested. Which EC50 did it give?
Answer: 83.7 nM

Question: Which EC50 does the source give for `[2H]C([2H])([2H])n1cnc(-c2cc([C@@H](COC(=O)NC(C)(C)C(F)F)N3C(=N)N[C@](CC4(C)CC4)(c4ccc(-c5cnn(C(F)F)c5)cc4)C3=O)ccc2Cl)n1` [Compound 98] here?
Answer: 52 nM

Question: Which EC50 does the source give for `CC(C)(C)C[C@]1(c2ccc(-c3cnn(C(F)F)c3)cc2)NC(=N)N([C@H](COC(=O)N2CC(C(F)F)C2)c2ccc(Cl)c(-c3ncn[nH]3)c2)C1=O` [Compound 99] here?
Answer: 65.7 nM

Question: Which EC50 does the source give for `CC(C)(F)C[C@]1(c2ccc(-c3cnn(C(F)F)c3)cc2)NC(=N)N([C@H](COC(=O)N2CC(F)(F)C2)c2ccc(Cl)c(-c3ncn[nH]3)c2)C1=O` [Compound 101] here?
Answer: 65.9 nM

Question: `CC(C)(C)C[C@]1(c2ccc(-c3cnn(C(F)F)c3)cc2)NC(=N)N([C@H](COC(=O)NC(C)(CO)CO)c2ccc(Cl)c(-c3ncn[nH]3)c2)C1=O` [Compound 102] was tested. Which EC50 did it give?
Answer: 196 nM

Question: With `CC(C)(C)C[C@]1(c2ccc(-c3ncccn3)cc2)NC(=N)N([C@H](COC(=O)N2CC(F)(F)C2)c2ccc(Cl)c(-c3ncn[nH]3)c2)C1=O` [Compound 104] as the compound, how does the EC50 read?
Answer: 33.5 nM

Question: Which EC50 does the source give for `CC(C)(C)C[C@]1(c2ccc(-c3cnn(C4COC4)c3)cc2)NC(=N)N([C@H](COC(=O)NC(C)(C)C)c2ccc(Cl)c(-c3ncn[nH]3)c2)C1=O` [Compound 106] here?
Answer: 101 nM

Question: For `CC(C)(C)C[C@]1(c2ccc(-c3cnn(C(F)F)c3)cc2)NC(=N)N([C@H](COC(=O)Nc2ccccc2)c2ccc(Cl)c(-c3ncn[nH]3)c2)C1=O` [Compound 107], which EC50 is on record?
Answer: 49.1 nM

Question: With `CC(C)(C)C[C@]1(c2ccc(-c3cnn(C(F)F)c3)cc2)NC(=N)N([C@H](COC(=O)Nc2ccccn2)c2ccc(Cl)c(-c3ncn[nH]3)c2)C1=O` [Compound 108] as the compound, how does the EC50 read?
Answer: 85.8 nM

Question: `CC(C)(C)C[C@]1(c2ccc(-c3cnn(C(F)F)c3)cc2F)NC(=N)N([C@H](COC(=O)N2CC(F)(F)C2)c2ccc(Cl)c(-c3ncn[nH]3)c2)C1=O` [Compound 111] was tested. Which EC50 did it give?
Answer: 40.4 nM

Question: For `CC(C)(C)C[C@]1(c2ccc(-c3ncccn3)cc2F)NC(=N)N([C@H](COC(=O)NC2(C(F)(F)F)CC2)c2ccc(Cl)c(-c3ncn[nH]3)c2)C1=O` [Compound 112], which EC50 is on record?
Answer: 40.4 nM

Question: How did the EC50 turn out when `CC(C)(C)C[C@]1(c2ccc(-c3cnn(C(F)F)c3)cc2F)NC(=N)N([C@H](COC(=O)NC(C)(C)C)c2ccc(Cl)c(-c3ncn[nH]3)c2)C1=O` [Compound 114] was run?
Answer: 40.6 nM

Question: With `CC(C)(C)C[C@]1(c2ccc(-c3cnn(C(F)F)c3)cc2)NC(=N)N([C@H](COC(=O)NC(C)(C)C(F)(F)F)c2ccc(Cl)c(-c3ncnn3C(F)F)c2)C1=O` [Compound 115] as the compound, how does the EC50 read?
Answer: 11.7 nM

Question: How did the EC50 turn out when `CC(C)(C)C[C@]1(c2ccc(-c3ccccn3)cc2F)NC(=N)N([C@H](COC(=O)NC2(C(F)(F)F)CC2)c2ccc(Cl)c(-c3ncn[nH]3)c2)C1=O` [Compound 116] was run?
Answer: 42.6 nM

Question: For `CC(C)(C)C[C@]1(c2ccc(-c3ncccn3)cc2)NC(=N)N([C@H](COC(=O)NC2(C(F)(F)F)CC2)c2ccc(Cl)c(-c3ncnn3C(F)F)c2)C1=O` [Compound 117], which EC50 is on record?
Answer: 6.81 nM

Question: `CC(C)(C)C[C@]1(c2ccc(-c3cnc(C#N)nc3)cc2)NC(=N)N([C@H](COC(=O)NC2(C(F)(F)F)CC2)c2ccc(Cl)c(-c3ncnn3C(F)F)c2)C1=O` [Compound 118] was tested. Which EC50 did it give?
Answer: 16.4 nM

Question: Which EC50 does the source give for `CC(C)(C)C[C@]1(c2ccc(-c3cnsc3)cc2)NC(=N)N([C@H](COC(=O)NC2(C(F)(F)F)CC2)c2ccc(Cl)c(-c3ncnn3C(F)F)c2)C1=O` [Compound 119] here?
Answer: 10.3 nM

Question: How did the EC50 turn out when `CC(C)(C)C[C@]1(c2ccc(-c3ccn4ccnc4c3)cc2)NC(=N)N([C@H](COC(=O)NC2(C(F)(F)F)CC2)c2ccc(Cl)c(-c3ncnn3C(F)F)c2)C1=O` [Compound 120] was run?
Answer: 27.8 nM

Question: Which EC50 does the source give for `CC(C)(C)C[C@]1(c2ccc(-c3cnc4ccccn34)cc2)NC(=N)N([C@H](COC(=O)NC2(C(F)(F)F)CC2)c2ccc(Cl)c(-c3ncnn3C(F)F)c2)C1=O` [Compound 121] here?
Answer: 21 nM

Question: With `CC(C)(C)C[C@]1(c2ccc(-c3cnc(C(F)(F)F)nc3)cc2)NC(=N)N([C@H](COC(=O)NC2(C(F)(F)F)CC2)c2ccc(Cl)c(-c3ncnn3C(F)F)c2)C1=O` [Compound 122] as the compound, how does the EC50 read?
Answer: 25.4 nM

Question: Which EC50 does the source give for `CC(C)(C)C[C@]1(c2ccc(-c3cnn(C(F)F)c3)cc2)NC(=N)N([C@H](COC(=O)NC2(C(F)(F)F)CC2)c2ccc(F)c(-c3ncnn3C(F)F)c2)C1=O` [Compound 123] here?
Answer: 28.1 nM

Question: Which EC50 does the source give for `CC(C)(C)C[C@]1(c2ccc(-c3ncccn3)cc2)NC(=N)N([C@H](COC(=O)NC(C)(C)C(F)F)c2ccc(Cl)c(-c3ncnn3C(F)F)c2)C1=O` [Compound 125] here?
Answer: 12 nM

Question: How did the EC50 turn out when `CC(C)(F)C[C@]1(c2ccc(Br)cc2)NC(=N)N([C@H](COC(=O)NC(C)(C)C(F)F)c2ccc(Cl)c(-c3ncnn3C(F)F)c2)C1=O` [Compound 126] was run?
Answer: 242 nM

Question: With `CC(C)(F)C[C@]1(c2ccc(-c3ncccn3)cc2)NC(=N)N([C@H](COC(=O)NC(C)(C)C(F)F)c2ccc(Cl)c(-c3ncnn3C(F)F)c2)C1=O` [Compound 127] as the compound, how does the EC50 read?
Answer: 27.5 nM

Question: `Cn1ncnc1-c1cc([C@@H](COC(=O)NC(C)(C)C(F)F)N2C(=N)N[C@](CC(C)(C)F)(c3ccc(-c4cnn(C(F)F)c4)cc3)C2=O)ccc1Cl` [Compound 128] was tested. Which EC50 did it give?
Answer: 85 nM

Question: How did the EC50 turn out when `Cn1ncnc1-c1cc([C@@H](COC(=O)NC(C)(C)C(F)F)N2C(=N)N[C@](CC(C)(C)C(F)(F)F)(c3ccc(-c4cnn(C(F)F)c4)cc3)C2=O)ccc1Cl` [Compound 130] was run?
Answer: 18.7 nM

Question: For `CC(C)(F)C[C@]1(c2ccc(-c3ncccn3)cc2F)NC(=N)N([C@H](COC(=O)NC(C)(C)C(F)F)c2ccc(Cl)c(-c3ncnn3C(F)F)c2)C1=O` [Compound 132], which EC50 is on record?
Answer: 48 nM

Question: Which EC50 does the source give for `CC(C)(F)C[C@]1(c2ccc(-c3cnn(C4CC4)c3)cc2F)NC(=N)N([C@H](COC(=O)NC(C)(C)C(F)F)c2ccc(Cl)c(-c3ncnn3C(F)F)c2)C1=O` [Compound 133] here?
Answer: 35.1 nM

Question: Which EC50 does the source give for `CC(C)(C)C[C@]1(c2ccc(-c3cnn(C4CC4)c3)c(F)c2F)NC(=N)N([C@H](COC(=O)NC2(C(F)(F)F)CC2)c2ccc(Cl)c(-c3ncnn3C(F)F)c2)C1=O` [Compound 136] here?
Answer: 7.91 nM

Question: How did the EC50 turn out when `CC(C)(C)C[C@]1(c2ccc(-c3cn(C4CC4)nn3)cc2)NC(=N)N([C@H](COC(=O)NC2(C(F)(F)F)CC2)c2ccc(Cl)c(-c3ncnn3C(F)F)c2)C1=O` [Compound 137] was run?
Answer: 19.5 nM

Question: `CC(C)(C)C[C@]1(c2ccc(-n3cc(F)cn3)cc2)NC(=N)N([C@H](COC(=O)NC2(C(F)(F)F)CC2)c2ccc(Cl)c(-c3ncnn3C(F)F)c2)C1=O` [Compound 138] was tested. Which EC50 did it give?
Answer: 11.5 nM

Question: With `CC1(C[C@]2(c3ccc(-c4cnn(C5CC5)c4)cc3)NC(=N)N([C@H](COC(=O)NC3(C(F)(F)F)CC3)c3ccc(Cl)c(-c4ncnn4C(F)F)c3)C2=O)CC1` [Compound 139] as the compound, how does the EC50 read?
Answer: 28.1 nM

Question: For `CC(C)(C)C[C@]1(c2ccc(-c3cnn(C(F)F)c3)cc2)NC(=N)N([C@H](COC(=O)NC2(C(F)(F)F)CC2)c2ccc(C#N)c(-c3ncnn3C(F)F)c2)C1=O` [Compound 140], which EC50 is on record?
Answer: 266 nM

Question: Which EC50 does the source give for `CC(C)(C)C[C@]1(c2ccc(-c3cnn(C(F)F)c3)cc2)NC(=N)N([C@H](COC(=O)NC2(C(F)(F)F)CC2)c2ccc(C(N)=O)c(-c3ncnn3C(F)F)c2)C1=O` [Compound 141] here?
Answer: 1020 nM

Question: For `CC(C)(C)C[C@]1(c2ccc(-c3ncn(C4CC4)n3)cc2F)NC(=N)N([C@H](COC(=O)NC2(C(F)(F)F)CC2)c2ccc(Cl)c(-c3ncnn3C(F)F)c2)C1=O` [Compound 142], which EC50 is on record?
Answer: 10.1 nM

Question: With `CC(C)(C)C[C@]1(c2ccc(-c3cnn(C4CC4)n3)cc2F)NC(=N)N([C@H](COC(=O)NC2(C(F)(F)F)CC2)c2ccc(Cl)c(-c3ncnn3C(F)F)c2)C1=O` [Compound 143] as the compound, how does the EC50 read?
Answer: 9.59 nM

Question: With `CC(C)(C)C[C@]1(c2ccc(-c3cnn(C4CC4)c3)c(F)c2)NC(=N)N([C@H](COC(=O)NC2(C(F)(F)F)CC2)c2ccc(Cl)c(-c3ncnn3C(F)F)c2)C1=O` [Compound 144] as the compound, how does the EC50 read?
Answer: 7.92 nM

Question: How did the EC50 turn out when `CC(C)(Cl)C[C@]1(c2ccc(-c3cnn(C(F)F)c3)cc2)NC(=N)N([C@H](COC(=O)NC2(C(F)(F)F)CC2)c2ccc(Cl)c(-c3ncnn3C(F)F)c2)C1=O` [Compound 145] was run?
Answer: 228 nM

Question: How did the EC50 turn out when `C[C@H](NC(=O)OC[C@H](c1ccc(Cl)c(-c2ncnn2C(F)F)c1)N1C(=N)N[C@](CC(C)(C)C)(c2ccc(-c3cnn(C4CC4)n3)cc2)C1=O)C(F)(F)F` [Compound 147] was run?
Answer: 7.93 nM

Question: Which EC50 does the source give for `C[C@H](NC(=O)OC[C@H](c1ccc(Cl)c(-c2ncnn2C(F)F)c1)N1C(=N)N[C@](CC(C)(C)C)(c2ccc(-c3cn(C45CC(C4)C5)nn3)c(F)c2)C1=O)C(F)(F)F` [Compound 148] here?
Answer: 13.8 nM

Question: With `CC(C)(C[C@]1(c2ccc(-c3cnn(C4CC4)n3)cc2)NC(=N)N([C@H](COC(=O)NC2(C(F)(F)F)CC2)c2ccc(Cl)c(-c3ncnn3C(F)F)c2)C1=O)C1CC1` [Compound 149] as the compound, how does the EC50 read?
Answer: 11.9 nM

Question: With `C[C@H](NC(=O)OC[C@H](c1ccc(Cl)c(-c2ncnn2C(F)F)c1)N1C(=N)N[C@](CC(C)(C)C2CC2)(c2ccc(-c3cnn(C4CC4)n3)cc2)C1=O)C(F)(F)F` [Compound 150] as the compound, how does the EC50 read?
Answer: 9.92 nM

Question: `CC(C)(C)C[C@]1(c2ccc(-c3cnn(CC(F)F)n3)cc2F)NC(=N)N([C@H](COC(=O)NC2(C(F)(F)F)CC2)c2ccc(Cl)c(-c3ncnn3C(F)F)c2)C1=O` [Compound 151] was tested. Which EC50 did it give?
Answer: 7.55 nM

same assay, conditions: MT-4 cells, HIV-1; read-out: MT4 EC50

Question: How did the EC50 turn out when `CC(C)(C)C[C@H]1C(=O)N([C@H](COC(=O)NC(C)(C)C(F)F)c2ccc(F)c(-c3ncnn3C(F)F)c2)C(=N)N1c1ccc(-c2cnn(C(F)F)c2)cc1` [Compound 124] was run?
Answer: 65.3 nM
